Test: Light obscuration particulate testing (HIAC-3000, based on USP 788), at time zero and 24 hours
Format: physicochemical
Conditions: in Zosyn solutions, summary of Table 1
Procedure: Samples are prepared according to the compositions described in Table I. […] The fluid in the bag is mixed with gentle inversions for about 30 seconds. • The bags are labeled with identity and reconstitution time. • When added, aminoglycosides are added immediately. The fluid in the bag is mixed with gentle inversions for about 30 seconds. • A 50 ml sample is drawn with a 60 cc syringe fitted with a 21-gauge needle. • A clean, particle free vial is rinsed with water for injection, and then filled with about 45 ml of the sample. HIAC testing is performed immediately. • Into a suitably sized sample vial, a 3 ml sample is prepared for HPLC testing. HPLC testing is begun within an hour of sample preparation (Table 1). The remainder of the Zosyn® admixture samples (about 50 ml) are stored in a closed cabinet in the laboratory, at ambient temperature and tested again 24 hours later (Table 1). Light obscuration testing is performed using a HIAC-3000. A testing method, based on USP 788 is followed for the analysis. (See TABLE I) The data is reported on a particle per ml basis. […] The same sample was resampled and analyzed 24 hours after the first test. A summary of the HIAC data is provided as Table I.

Structure (SMILES) | effect of added EDTA (edetate disodium dihydrate) on number of particles generated | effect of added aminoglycoside on number of particles generated
O=C(O)CN(CCN(CC(=O)O)CC(=O)O)CC(=O)O [EDTA, ethylene diamine tetraacetic acid] | significantly reduces the number of particles generated in 24 hours | –
NCC[C@H](O)C(=O)N[C@@H]1C[C@H](N)[C@@H](O[C@H]2O[C@H](CN)[C@@H](O)[C@H](O)[C@H]2O)[C@H](O)[C@H]1O[C@H]1O[C@H](CO)[C@@H](O)[C@H](N)[C@H]1O [amikacin] | – | increases the number of particles generated in 24 hours

Reference: patent US6900184B2, “Compositions containing pipercillin and tazobactam useful for injection” (Wyeth Holdings Corporation, priority 2003, dated 2005)
